Laboratory results: ChEMBL document CHEMBL1201862, “PubChem BioAssay data set” (2004)
The source made the active and inactive calls.

Columns and labels:
Aminopeptidase N = target: T1, Aminopeptidase N (Plasmodium falciparum FcB1/Columbia, UniProt O96935); assay: malaria alanyl aminopeptidase activity blockers – biochemical, fluorogenic H-Leu-NHMec substrate, 1536-well (AID 1445); parameters: species or system Plasmodium falciparum 3D7, 3D7
T1 sequence (O96935 whole entry): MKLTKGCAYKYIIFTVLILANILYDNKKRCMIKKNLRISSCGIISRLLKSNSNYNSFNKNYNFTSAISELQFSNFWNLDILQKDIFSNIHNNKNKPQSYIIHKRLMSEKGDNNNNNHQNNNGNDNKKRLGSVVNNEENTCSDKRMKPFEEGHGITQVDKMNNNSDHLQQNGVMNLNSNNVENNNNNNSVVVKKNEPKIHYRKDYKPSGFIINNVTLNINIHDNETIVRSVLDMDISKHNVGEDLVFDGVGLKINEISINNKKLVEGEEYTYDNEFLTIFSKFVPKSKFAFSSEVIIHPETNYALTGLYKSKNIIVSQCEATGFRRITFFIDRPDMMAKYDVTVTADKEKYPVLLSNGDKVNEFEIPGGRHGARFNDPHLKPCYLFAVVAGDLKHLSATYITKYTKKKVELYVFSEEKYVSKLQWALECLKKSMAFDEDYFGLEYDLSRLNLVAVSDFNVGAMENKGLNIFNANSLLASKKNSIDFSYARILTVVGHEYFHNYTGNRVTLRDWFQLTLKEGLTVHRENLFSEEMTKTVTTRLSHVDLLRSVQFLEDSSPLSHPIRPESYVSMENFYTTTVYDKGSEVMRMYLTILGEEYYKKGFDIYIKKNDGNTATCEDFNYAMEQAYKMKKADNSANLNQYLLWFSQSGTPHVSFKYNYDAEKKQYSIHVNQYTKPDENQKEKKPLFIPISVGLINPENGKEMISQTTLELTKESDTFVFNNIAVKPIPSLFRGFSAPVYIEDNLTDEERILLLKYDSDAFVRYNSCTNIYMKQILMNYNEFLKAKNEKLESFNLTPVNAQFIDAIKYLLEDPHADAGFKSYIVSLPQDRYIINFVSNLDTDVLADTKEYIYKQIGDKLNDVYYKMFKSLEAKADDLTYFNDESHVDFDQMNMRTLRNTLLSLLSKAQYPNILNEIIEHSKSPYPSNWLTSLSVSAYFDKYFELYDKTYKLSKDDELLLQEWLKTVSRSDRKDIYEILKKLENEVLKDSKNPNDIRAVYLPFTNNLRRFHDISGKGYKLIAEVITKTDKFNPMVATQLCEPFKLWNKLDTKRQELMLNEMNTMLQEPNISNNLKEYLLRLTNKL

SN12K1 = assay: cells; type: functional; details: Homo sapiens
P388 = assay: cells; type: functional; details: Mus musculus
P388/ADR = assay: cells; type: functional; details: Mus musculus
cells = type: functional
Cytochrome P450 2C9 = Cytochrome P450 2C9 (Homo sapiens, UniProt P11712)
Cytochrome P450 1A2 = target: T2, Cytochrome P450 1A2 (Homo sapiens, UniProt P05177);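 further: PubChem cytochrome P450 panel assay, CYP1A2 panel member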
T2 sequence (P05177 whole entry): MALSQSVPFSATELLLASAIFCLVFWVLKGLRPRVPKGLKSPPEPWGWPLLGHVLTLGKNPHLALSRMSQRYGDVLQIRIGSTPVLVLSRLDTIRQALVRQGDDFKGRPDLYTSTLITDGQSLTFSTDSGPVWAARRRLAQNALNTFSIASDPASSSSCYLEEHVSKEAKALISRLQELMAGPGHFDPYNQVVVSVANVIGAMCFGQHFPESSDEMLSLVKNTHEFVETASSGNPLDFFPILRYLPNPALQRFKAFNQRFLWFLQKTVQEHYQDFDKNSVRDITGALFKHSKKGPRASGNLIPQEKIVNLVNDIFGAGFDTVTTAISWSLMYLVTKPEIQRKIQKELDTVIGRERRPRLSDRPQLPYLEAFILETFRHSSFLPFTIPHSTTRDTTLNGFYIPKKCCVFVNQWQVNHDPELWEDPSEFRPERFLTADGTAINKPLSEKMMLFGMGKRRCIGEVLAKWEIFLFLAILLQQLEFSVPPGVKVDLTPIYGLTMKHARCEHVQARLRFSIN

[1] = viability of uninfected HEp-2 cells – cell-based, HTS, cytotoxicity control for RSV inhibitor project, dose response (AID 2410); type: functional; details: human respiratory syncytial virus
Genome polyprotein = Genome polyprotein (dengue virus type 2, UniProt P29990); assay: flavivirus cap methylation enzyme inhibition – biochemical, confirmation dose response, primary screen (AID 588689); type: functional
[2] = Luminescence Cell-Based Dose Retest to Confirm Inhibitors of Cancer Stem Cells. [Related pubchem assays (depositor defined):AID2717, AID2721]; type: functional; details: Homo sapiens
[3] = viability of HCT116 lacking mutant beta-catenin – cell-based, human colon tumor, dose response (AID 1045); type: functional;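 further: HCT116 colon tumor cells with beta catenin knocked out; cells exposed to compound for 60 hours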
[4] = viability of PTEN-deleted HCT116 cells – cell-based, HCT116 PTEN knockout, dose response (AID 1047); type: functional;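 further: HCT116 colon tumor cells with PTEN knocked out; cells exposed to compound for 60 hours before readout; potency for loss of cell viability measured by luminescence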
Cytochrome P450 3A4 = Cytochrome P450 3A4 (Homo sapiens, UniProt P08684);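 further: CYP3A4 tested as one member of a cytochrome P450 panel screen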
Cytochrome P450 2C19 = Cytochrome P450 2C19 (Homo sapiens, UniProt P33261); assay: Cytochrome panel assay with activity outcomes. Panel member name: p450-cyp2c19 Compounds with AC50 equal or less than 10 uM are considered active; type: functional; details: read-out: AC50
Chain of Cytochrome P450 2C19 (P33261 whole entry): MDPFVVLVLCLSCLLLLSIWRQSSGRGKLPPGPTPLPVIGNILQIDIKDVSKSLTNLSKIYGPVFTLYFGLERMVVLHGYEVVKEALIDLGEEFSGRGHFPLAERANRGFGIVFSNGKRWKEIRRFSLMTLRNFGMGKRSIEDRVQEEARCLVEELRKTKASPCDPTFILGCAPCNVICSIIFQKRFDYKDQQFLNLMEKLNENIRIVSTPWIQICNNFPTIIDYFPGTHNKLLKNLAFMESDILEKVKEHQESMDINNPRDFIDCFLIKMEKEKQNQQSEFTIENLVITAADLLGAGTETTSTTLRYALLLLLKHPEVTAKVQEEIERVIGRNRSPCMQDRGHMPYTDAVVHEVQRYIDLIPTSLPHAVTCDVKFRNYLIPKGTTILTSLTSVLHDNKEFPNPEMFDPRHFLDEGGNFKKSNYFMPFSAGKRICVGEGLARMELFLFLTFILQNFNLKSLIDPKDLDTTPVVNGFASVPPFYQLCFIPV

Chain of Cytochrome P450 2C9 (P11712 whole entry): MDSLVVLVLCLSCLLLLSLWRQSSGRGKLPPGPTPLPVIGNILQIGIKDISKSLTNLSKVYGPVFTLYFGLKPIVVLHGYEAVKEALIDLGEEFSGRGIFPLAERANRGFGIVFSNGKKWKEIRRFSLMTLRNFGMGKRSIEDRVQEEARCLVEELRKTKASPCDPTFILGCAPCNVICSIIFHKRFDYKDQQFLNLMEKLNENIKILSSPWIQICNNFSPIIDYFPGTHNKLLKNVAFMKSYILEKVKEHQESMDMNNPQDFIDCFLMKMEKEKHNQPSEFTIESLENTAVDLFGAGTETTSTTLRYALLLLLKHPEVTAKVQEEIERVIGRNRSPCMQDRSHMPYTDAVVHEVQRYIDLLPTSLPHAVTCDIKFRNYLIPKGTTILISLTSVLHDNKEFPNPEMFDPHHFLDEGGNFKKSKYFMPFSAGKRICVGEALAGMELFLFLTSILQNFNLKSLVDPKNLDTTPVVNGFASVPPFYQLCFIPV
Chain of Cytochrome P450 3A4 (P08684 whole entry): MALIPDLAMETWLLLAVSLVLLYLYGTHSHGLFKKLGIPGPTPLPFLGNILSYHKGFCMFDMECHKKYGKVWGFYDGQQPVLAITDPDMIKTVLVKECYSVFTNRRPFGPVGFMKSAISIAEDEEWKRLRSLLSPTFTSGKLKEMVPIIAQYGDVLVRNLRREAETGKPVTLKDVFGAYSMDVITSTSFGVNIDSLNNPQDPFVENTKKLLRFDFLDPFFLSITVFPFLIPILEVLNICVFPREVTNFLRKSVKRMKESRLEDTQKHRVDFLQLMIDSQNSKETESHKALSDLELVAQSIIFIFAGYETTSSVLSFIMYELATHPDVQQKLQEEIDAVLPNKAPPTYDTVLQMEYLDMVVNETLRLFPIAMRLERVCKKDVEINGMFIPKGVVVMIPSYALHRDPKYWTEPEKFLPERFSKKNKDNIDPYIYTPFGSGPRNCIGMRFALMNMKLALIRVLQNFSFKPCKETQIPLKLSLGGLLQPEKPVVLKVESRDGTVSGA
Chain of Genome polyprotein (P29990 2492-3391 limits assumed): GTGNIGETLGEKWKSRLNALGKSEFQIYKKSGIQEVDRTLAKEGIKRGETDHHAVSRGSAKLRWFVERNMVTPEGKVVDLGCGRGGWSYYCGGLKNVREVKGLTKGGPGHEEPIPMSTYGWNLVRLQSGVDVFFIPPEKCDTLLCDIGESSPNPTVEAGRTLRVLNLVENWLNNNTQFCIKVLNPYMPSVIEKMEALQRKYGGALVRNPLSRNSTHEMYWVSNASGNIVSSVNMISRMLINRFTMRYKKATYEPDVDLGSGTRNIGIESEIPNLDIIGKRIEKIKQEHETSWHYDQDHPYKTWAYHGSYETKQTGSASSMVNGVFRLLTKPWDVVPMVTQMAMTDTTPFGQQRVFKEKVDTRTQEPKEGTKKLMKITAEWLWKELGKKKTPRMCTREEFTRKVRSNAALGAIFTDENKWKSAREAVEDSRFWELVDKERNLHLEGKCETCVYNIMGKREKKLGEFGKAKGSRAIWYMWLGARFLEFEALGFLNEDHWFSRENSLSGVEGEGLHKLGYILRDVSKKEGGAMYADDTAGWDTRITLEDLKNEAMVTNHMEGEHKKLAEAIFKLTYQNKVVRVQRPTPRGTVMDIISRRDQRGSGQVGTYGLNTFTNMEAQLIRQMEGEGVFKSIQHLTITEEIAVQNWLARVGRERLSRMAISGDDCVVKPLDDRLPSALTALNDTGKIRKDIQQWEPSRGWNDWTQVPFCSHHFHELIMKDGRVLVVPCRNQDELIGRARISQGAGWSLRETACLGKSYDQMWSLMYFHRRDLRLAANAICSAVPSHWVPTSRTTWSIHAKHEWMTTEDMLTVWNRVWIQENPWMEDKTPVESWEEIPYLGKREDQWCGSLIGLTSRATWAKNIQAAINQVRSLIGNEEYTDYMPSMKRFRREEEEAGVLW

Structure (SMILES): COc1cccc(/C=C(/C#N)c2ccc(F)cc2)c1OCc1cccc(C(=O)O)c1
- IC50 (Aminopeptidase N): 43.6 µM (active)

Structure (SMILES): COc1ccc(S(=O)(=O)N/N=C/C(=O)O)cc1
- GI50 (SN12K1): 360 µM (inactive)
- GI50 (P388): 255 µM (inactive)
- GI50 (P388/ADR): 212 µM (inactive)

Structure (SMILES): COc1cccc2cc(-c3nc4ccccc4[nH]3)c(=O)oc12
- IC50 (cells): < 100 nM (active)

Structure (SMILES): O=C(Cc1ccc(Cl)cc1)NNC(=O)Nc1cccc2ccccc12
- AC50 (Cytochrome P450 2C9): inconclusive
- AC50 (Cytochrome P450 1A2): 2.51 µM (inconclusive)

Structure (SMILES): CN1CCN(c2ccc3[nH]c(-c4ccc5[nH]c(-c6ccc(O)cc6)nc5c4)nc3c2)CC1
- GI50 (SN12K1): 27 µM (inactive)
- GI50 (P388): 7.94 µM (inactive)
- GI50 (P388/ADR): 53.1 µM (inactive)

Structure (SMILES): CCc1ccc([C@@H]2CC=C(C(=O)O)[C@H](c3ccc(Cl)cc3)N2S(=O)(=O)c2ccc(C)cc2)cc1
- CC50 [1]: 11.6 µM (active)
- IC50 (Genome polyprotein): 40.3 µM (active)
- AC50 [2]: 7.7 µM (active)

Structure (SMILES): CSc1ncc(Cl)c(C(=O)C(C#N)c2nc3c(C)cc(C)cc3c(=O)[nH]2)n1 (stereo unspecified)
- IC50 (Aminopeptidase N): 84.5 µM (active)

Structure (SMILES): CC(C)(C)S(=O)(=O)c1cnc2c(-c3ccc(Cl)cc3)cnn2c1N
- EC50 [3]: 11.8 µM (active)
- EC50 [4]: 10.3 µM (active)

Structure (SMILES): COC(=O)c1ccccc1NC(=O)c1ccc(Cn2cc(Cl)cn2)o1
- AC50 (Cytochrome P450 2C9): inconclusive
- AC50 (Cytochrome P450 3A4): 10 µM (inconclusive)

Structure (SMILES): O=C(/C=C/c1ccccc1Cl)NCCN1CCOCC1
- AC50 (Cytochrome P450 2C9): inconclusive
- AC50 (Cytochrome P450 2C19): 5.01 µM (inconclusive)
- AC50 (Cytochrome P450 3A4): 15.8 µM (inconclusive)

Structure (SMILES): CN(C)c1nc(-c2cccnc2)nc2ccccc12
- AC50 (Cytochrome P450 2C9): inconclusive

Structure (SMILES): Cc1c(CNc2ccc(Cl)c(C(=O)NC(CC(=O)O)C(=O)O)c2)ccc2nc(N)nc(N)c12 (stereo unspecified)
- GI50 (SN12K1): 0.043 µM (active)
- GI50 (P388): 0.0339 µM (active)
- GI50 (P388/ADR): 0.049 µM (active)

Structure (SMILES): CCCn1c(-c2ccc[nH]c2=O)nc2cc(C)c(C)cc21
- IC50 (Aminopeptidase N): 23.8 µM (active)

Structure (SMILES): Cc1cccc(C2C3=C(O)c4ccccc4C3=Nc3nn(-c4ccccc4)c(O)c32)c1 (stereo unspecified)
- IC50 (Genome polyprotein): 59.4 µM (active)
- IC50 (Aminopeptidase N): 38.3 µM (active)

Structure (SMILES): CCOC(=O)CNC(=O)N1c2ccccc2Sc2ccccc21
- IC50 (cells): 1950 nM (active)

Structure (SMILES): O=C(CCc1ccccc1)NNC(=O)C1CCCCC1
- AC50 (Cytochrome P450 2C9): inconclusive

Structure (SMILES): CN(C)CCCNc1oc(/C=C/c2ccccc2)nc1C#N
- IC50 (Aminopeptidase N): 45.3 µM (active)
